Biological target: GST-Bc1-2 (Homo sapiens, UniProt P10415)
Test: Time Resolved-Fluorescence Resonance Energy Transfer (TR-FRET) Bcl-2 binding assay with F-Bak peptide probe
Settings: GST-Bcl-2 1 nM, F-Bak probe 100 nM, Tb-anti-GST 1 nM; '<' = below limit of detection; read-out: TR-FRET Bcl-2 Binding Ki

GST-Bc1-2, sequence (P10415 whole entry): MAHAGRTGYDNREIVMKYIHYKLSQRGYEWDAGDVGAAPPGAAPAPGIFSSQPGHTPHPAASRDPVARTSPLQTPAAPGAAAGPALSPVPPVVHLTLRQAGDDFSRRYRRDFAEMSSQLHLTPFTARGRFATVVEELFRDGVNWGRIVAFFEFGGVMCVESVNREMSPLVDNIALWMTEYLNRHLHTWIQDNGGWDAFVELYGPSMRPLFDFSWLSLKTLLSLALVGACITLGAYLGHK

CC1(C)CCC(CN2CCN(c3ccc(C(=O)NS(=O)(=O)c4ccc(NC[C@@H]5CC[C@H](O)C5)c([N+](=O)[O-])c4)c(Oc4cnc5[nH]ccc5c4)c3)CC2)=C(c2ccc(Cl)cc2)C1 [Example 159, 4-(4-{[2-(4-chlorophenyl)-4,4-dimethylcyclohex-1-en-1-yl]methyl}piperazin-1-yl)-N-{[4-({[(1R,3S)-3-hydroxycyclopentyl]methyl}amino)-3-nitrophenyl]sulfonyl}-2-(1H-pyrrolo[2,3-b]pyridin-5-yloxy)benzamide] and CC1(C)CCC(CN2CCN(c3ccc(C(=O)NS(=O)(=O)c4ccc(NC[C@H]5CC[C@H](O)C5)c([N+](=O)[O-])c4)c(Oc4cnc5[nH]ccc5c4)c3)CC2)=C(c2ccc(Cl)cc2)C1 [Example 157, 4-(4-{[2-(4-chlorophenyl)-4,4-dimethylcyclohex-1-en-1-yl]methyl}piperazin-1-yl)-N-{[4-({[(1S,3S)-3-hydroxycyclopentyl]methyl}amino)-3-nitrophenyl]sulfonyl}-2-(1H-pyrrolo[2,3-b]pyridin-5-yloxy)benzamide] cannot be ordered by Ki: < 0.01 nM for the first, < 0.01 nM for the second.

CC1(C)CCC(CN2CCN(c3ccc(C(=O)NS(=O)(=O)c4ccc(NCC5CNCCO5)c([N+](=O)[O-])c4)c(Oc4cnc5[nH]ccc5c4)c3)CC2)=C(c2ccc(Cl)cc2)C1 (centres unmarked) [Example 113, 4-(4-{[2-(4-chlorophenyl)-4,4-dimethylcyclohex-1-en-1-yl]methyl}piperazin-1-yl)-N-({4-[(morpholin-2-ylmethyl)amino]-3-nitrophenyl}sulfonyl)-2-(1H-pyrrolo[2,3-b]pyridin-5-yloxy)benzamide] and CN(C)CC(=O)N1CCO[C@@H](CNc2ccc(S(=O)(=O)NC(=O)c3ccc(N4CCN(CC5=C(c6ccc(Cl)cc6)CC(C)(C)CC5)CC4)cc3Oc3cnc4[nH]ccc4c3)cc2[N+](=O)[O-])C1 [Example 259, 4-(4-{[2-(4-chlorophenyl)-4,4-dimethylcyclohex-1-en-1-yl]methyl}piperazin-1-yl)-N-{[4-({[(2S)-4-(N,N-dimethylglycyl)morpholin-2-yl]methyl}amino)-3-nitrophenyl]sulfonyl}-2-(1H-pyrrolo[2,3-b]pyridin-5-yloxy)benzamide] cannot be ordered by Ki: < 0.01 nM for the first, < 0.01 nM for the second.

First: CC1(C)CCC(CN2CCN(c3ccc(C(=O)NS(=O)(=O)c4cnc(OC5CCN(C6CCOCC6)CC5)c(C#N)c4)c(Oc4cnc5[nH]ccc5c4)c3)CC2)=C(c2ccc(Cl)cc2)C1 [Example 84, 4-(4-{[2-(4-chlorophenyl)-4,4-dimethylcyclohex-1-en-1-yl]methyl}piperazin-1-yl)-N-({5-cyano-6-[(1-tetrahydro-2H-pyran-4-ylpiperidin-4-yl)oxy]pyridin-3-yl}sulfonyl)-2-(1H-pyrrolo[2,3-b]pyridin-5-yloxy)benzamide]
Second: CC1(C)CCC(CN2CCN(c3ccc(C(=O)NS(=O)(=O)c4ccc(OCC5CCOCC5)c(C#N)c4)c(Oc4cnc5[nH]ccc5c4)c3)CC2)=C(c2ccc(Cl)cc2)C1 [Example 284, 4-(4-{[2-(4-chlorophenyl)-4,4-dimethylcyclohex-1-en-1-yl]methyl}piperazin-1-yl)-N-{[3-cyano-4-(tetrahydro-2H-pyran-4-ylmethoxy)phenyl]sulfonyl}-2-(1H-pyrrolo[2,3-b]pyridin-5-yloxy)benzamide]
The Ki of the first is 5.1-fold higher: 0.123 nM for the first, 0.024 nM for the second. The second binds more tightly here.

CC1(C)CCC(CN2CCN(c3ccc(C(=O)NS(=O)(=O)c4ccc(OCC5(F)CCN(C6COC6)CC5)c([N+](=O)[O-])c4)c(Oc4cnc5[nH]ccc5c4)c3)CC2)=C(c2ccc(Cl)cc2)C1 [Example 167, 4-(4-{[2-(4-chlorophenyl)-4,4-dimethylcyclohex-1-en-1-yl]methyl}piperazin-1-yl)-N-({4-[(4-fluoro-1-oxetan-3-ylpiperidin-4-yl)methoxy]-3-nitrophenyl}sulfonyl)-2-(1H-pyrrolo[2,3-b]pyridin-5-yloxy)benzamide] and CC1(C)CCC(CN2CCN(c3ccc(C(=O)NS(=O)(=O)c4ccc(OCC5(F)CCN(C6CCOCC6)CC5)c([N+](=O)[O-])c4)c(Oc4cnc5[nH]ccc5c4)c3)CC2)=C(c2ccc(Cl)cc2)C1 [Example 192, 4-(4-{[2-(4-chlorophenyl)-4,4-dimethylcyclohex-1-en-1-yl]methyl}piperazin-1-yl)-N-({4-[(4-fluoro-1-tetrahydro-2H-pyran-4-ylpiperidin-4-yl)methoxy]-3-nitrophenyl}sulfonyl)-2-(1H-pyrrolo[2,3-b]pyridin-5-yloxy)benzamide] cannot be ordered by Ki: < 0.01 nM for the first, < 0.01 nM for the second.

First: CC1(C)CCC(CN2CCN(c3ccc(C(=O)NS(=O)(=O)c4ccc(N5CCC(N6CCOCC6)CC5)c([N+](=O)[O-])c4)c(Oc4cnc5[nH]ccc5c4)c3)CC2)=C(c2ccc(Cl)cc2)C1 [Example 223, 4-(4-{[2-(4-chlorophenyl)-4,4-dimethylcyclohex-1-en-1-yl]methyl}piperazin-1-yl)-N-({4-[4-(morpholin-4-yl)piperidin-1-yl]-3-nitrophenyl}sulfonyl)-2-(1H-pyrrolo[2,3-b]pyridin-5-yloxy)benzamide]
Second: CC1(C)CCC(CN2CCN(c3ccc(C(=O)NS(=O)(=O)c4ccc(OCC#CCN5CCOCC5)c([N+](=O)[O-])c4)c(Oc4cnc5[nH]ccc5c4)c3)CC2)=C(c2ccc(Cl)cc2)C1 [Example 68, 4-(4-{[2-(4-chlorophenyl)-4,4-dimethylcyclohex-1-en-1-yl]methyl}piperazin-1-yl)-N-({4-[(4-morpholin-4-ylbut-2-ynyl)oxy]-3-nitrophenyl}sulfonyl)-2-(1H-pyrrolo[2,3-b]pyridin-5-yloxy)benzamide]
The Ki of the first is 4.4-fold higher: 0.053 nM for the first, 0.012 nM for the second.

CC1(C)CCC(CN2CCN(c3ccc(C(=O)NS(=O)(=O)c4ccc(NC[C@@H]5CCN(C6COC6)C5)c([N+](=O)[O-])c4)c(Oc4cnc5[nH]ccc5c4)c3)CC2)=C(c2ccc(Cl)cc2)C1 [Example 209, 4-(4-{[2-(4-chlorophenyl)-4,4-dimethylcyclohex-1-en-1-yl]methyl}piperazin-1-yl)-N-{[3-nitro-4-({[(3S)-1-oxetan-3-ylpyrrolidin-3-yl]methyl}amino)phenyl]sulfonyl}-2-(1H-pyrrolo[2,3-b]pyridin-5-yloxy)benzamide] and CC1(C)CCC(CN2CCN(c3ccc(C(=O)NS(=O)(=O)c4ccc(NC5CN(C6COC6)C5)c([N+](=O)[O-])c4)c(Oc4cnc5[nH]ccc5c4)c3)CC2)=C(c2ccc(Cl)cc2)C1 [Example 256, 4-(4-{[2-(4-chlorophenyl)-4,4-dimethylcyclohex-1-en-1-yl]methyl}piperazin-1-yl)-N-[(3-nitro-4-{[1-(oxetan-3-yl)azetidin-3-yl]amino}phenyl)sulfonyl]-2-(1H-pyrrolo[2,3-b]pyridin-5-yloxy)benzamide] cannot be ordered by Ki: < 0.01 nM for the first, < 0.01 nM for the second.

Going from CC1(C)CCC(CN2CCN(c3ccc(C(=O)NS(=O)(=O)c4ccc(NC5CCC6(CC5)OCCO6)c([N+](=O)[O-])c4)c(Oc4cnc5[nH]ccc5c4)c3)CC2)=C(c2ccc(Cl)cc2)C1 [Example 178, 4-(4-{[2-(4-chlorophenyl)-4,4-dimethylcyclohex-1-en-1-yl]methyl}piperazin-1-yl)-N-{[4-(1,4-dioxaspiro[4.5]dec-8-ylamino)-3-nitrophenyl]sulfonyl}-2-(1H-pyrrolo[2,3-b]pyridin-5-yloxy)benzamide] to CC(=O)N[C@H]1CC[C@H](Nc2ccc(S(=O)(=O)NC(=O)c3ccc(N4CCN(CC5=C(c6ccc(Cl)cc6)CC(C)(C)CC5)CC4)cc3Oc3cnc4[nH]ccc4c3)cc2[N+](=O)[O-])CC1 [Example 179, Trans-N-[(4-{[4-(acetylamino)cyclohexyl]amino}-3-nitrophenyl)sulfonyl]-4-(4-{[2-(4-chlorophenyl)-4,4-dimethylcyclohex-1-en-1-yl]methyl}piperazin-1-yl)-2-(1H-pyrrolo[2,3-b]pyridin-5-yloxy)benzamide], the Ki falls from 0.076 nM to < 0.01 nM.

Going from CN(C)CC(=O)N1CC[C@@H](Nc2ccc(S(=O)(=O)NC(=O)c3ccc(N4CCN(CC5=C(c6ccc(Cl)cc6)CC(C)(C)CC5)CC4)cc3Oc3cnc4[nH]ccc4c3)cc2[N+](=O)[O-])C1 [Example 255, 4-(4-{[2-(4-chlorophenyl)-4,4-dimethylcyclohex-1-en-1-yl]methyl}piperazin-1-yl)-N-[(4-{[(3R)-1-(N,N-dimethylglycyl)pyrrolidin-3-yl]amino}-3-nitrophenyl)sulfonyl]-2-(1H-pyrrolo[2,3-b]pyridin-5-yloxy)benzamide] to CC1(C)CCC(CN2CCN(c3ccc(C(=O)NS(=O)(=O)c4ccc(NCc5ccc(O)cc5)c([N+](=O)[O-])c4)c(Oc4cnc5[nH]ccc5c4)c3)CC2)=C(c2ccc(Cl)cc2)C1 [Example 185, 4-(4-{[2-(4-chlorophenyl)-4,4-dimethylcyclohex-1-en-1-yl]methyl}piperazin-1-yl)-N-({4-[(4-hydroxybenzyl)amino]-3-nitrophenyl}sulfonyl)-2-(1H-pyrrolo[2,3-b]pyridin-5-yloxy)benzamide], the Ki rises from < 0.01 nM to 0.022 nM.

In the case of CC1(C)CCC(CN2CCN(c3ccc(C(=O)NS(=O)(=O)c4ccc(N[C@@H]5CCN(C(CF)CF)C5)c(S(=O)(=O)C(F)(F)F)c4)c(Oc4cnc5[nH]ccc5c4)c3)CC2)=C(c2ccc(Cl)cc2)C1 [Example 225, 4-(4-{[2-(4-chlorophenyl)-4,4-dimethylcyclohex-1-en-1-yl]methyl}piperazin-1-yl)-N-[(4-{[(3R)-1-(1,3-difluoropropan-2-yl)pyrrolidin-3-yl]amino}-3-[(trifluoromethyl)sulfonyl]phenyl)sulfonyl]-2-(1H-pyrrolo[2,3-b]pyridin-5-yloxy)benzamide], the Ki is reported as 0.196 nM.

Same assay, conditions: TR-FRET Bcl-2 Binding Ki

CC1(C)CCC(CN2CCN(c3ccc(C(=O)NS(=O)(=O)c4ccc(OCC5COCCO5)c([N+](=O)[O-])c4)c(Oc4ccc5[nH]ccc5c4)c3)CC2)=C(c2ccc(Cl)cc2)C1 (centres unmarked) [Example 92, 4-(4-{[2-(4-chlorophenyl)-4,4-dimethylcyclohex-1-en-1-yl]methyl}piperazin-1-yl)-N-{[4-(1,4-dioxan-2-ylmethoxy)-3-nitrophenyl]sulfonyl}-2-(1H-indol-5-yloxy)benzamide] was tested, and the Ki was 0.128 nM.

Same assay, conditions: read-out: Bcl-2 FRET Ki

CC1(C)CCC(CN2CCN(c3ccc(C(=O)NS(=O)(=O)c4ccc(OCC5COCCO5)c([N+](=O)[O-])c4)c(Oc4ccc5[nH]ccc5c4)c3)CC2)=C(c2ccc(Cl)cc2)C1 (centres unmarked) [Example 92, 4-(4-{[2-(4-chlorophenyl)-4,4-dimethylcyclohex-1-en-1-yl]methyl}piperazin-1-yl)-N-{[4-(1,4-dioxan-2-ylmethoxy)-3-nitrophenyl]sulfonyl}-2-(1H-indol-5-yloxy)benzamide] gave a Ki of 0.128 nM.

Same assay, conditions: read-out: Bcl-2 FRET ki

CC1(C)CCC(CN2CCN(c3ccc(C(=O)NS(=O)(=O)c4ccc(OCC5COCCO5)c([N+](=O)[O-])c4)c(Oc4ccc5[nH]ccc5c4)c3)CC2)=C(c2ccc(Cl)cc2)C1 (centres unmarked) [Example 92, 4-(4-{[2-(4-chlorophenyl)-4,4-dimethylcyclohex-1-en-1-yl]methyl}piperazin-1-yl)-N-{[4-(1,4-dioxan-2-ylmethoxy)-3-nitrophenyl]sulfonyl}-2-(1H-indol-5-yloxy)benzamide] was tested, and the Ki was 0.128 nM.

— patent US8580794B2 (AbbVie Inc., priority 2009, dated 2013)
